This is an account of results in ChEMBL document CHEMBL5226288, “A perspective on medicinal chemistry approaches towards adenomatous polyposis coli and Wnt signal based colorectal cancer inhibitors” (Eur J Med Chem, 2021).

Values after ≈ are worked out from the molar mass of the structure shown.

Experiment [1] has as its system DLD-1. The experiment can be described thus: Antiproliferative activity against human DLD-1 cells assessed as reduction in cell viability by MTS assay. Format: functional, cell-based. For orientation: Tetrazolium assays rely on reduction of a dye to a coloured formazan, in cell work by metabolically active cells.
In experiment [2] the test system is SW480. The experiment in a line: Anticancer activity against human SW480 cells assessed as reduction in cell proliferation incubated for 72 hrs by. In kind it is functional, cell-based.
Experiment [3] can be described thus: Inhibition of APC/ASEF (unknown origin) protein protein interaction incubated for 2 hrs by fluorescence polarization analysis. On the set-up: species or system Homo sapiens.
For experiment [4], the system named is HCT-116. The experiment can be described thus: Antiproliferative activity against human HCT-116 cells assessed as reduction in cell viability incubated for 48 hrs by MTT assay. In kind it is functional, cell-based. The settings on record: time 48 hrs.
In experiment [5] the target is T1, Poly [ADP-ribose] polymerase tankyrase-2 (Homo sapiens, UniProt Q9H2K2).
T1 sequence (Q9H2K2 whole entry): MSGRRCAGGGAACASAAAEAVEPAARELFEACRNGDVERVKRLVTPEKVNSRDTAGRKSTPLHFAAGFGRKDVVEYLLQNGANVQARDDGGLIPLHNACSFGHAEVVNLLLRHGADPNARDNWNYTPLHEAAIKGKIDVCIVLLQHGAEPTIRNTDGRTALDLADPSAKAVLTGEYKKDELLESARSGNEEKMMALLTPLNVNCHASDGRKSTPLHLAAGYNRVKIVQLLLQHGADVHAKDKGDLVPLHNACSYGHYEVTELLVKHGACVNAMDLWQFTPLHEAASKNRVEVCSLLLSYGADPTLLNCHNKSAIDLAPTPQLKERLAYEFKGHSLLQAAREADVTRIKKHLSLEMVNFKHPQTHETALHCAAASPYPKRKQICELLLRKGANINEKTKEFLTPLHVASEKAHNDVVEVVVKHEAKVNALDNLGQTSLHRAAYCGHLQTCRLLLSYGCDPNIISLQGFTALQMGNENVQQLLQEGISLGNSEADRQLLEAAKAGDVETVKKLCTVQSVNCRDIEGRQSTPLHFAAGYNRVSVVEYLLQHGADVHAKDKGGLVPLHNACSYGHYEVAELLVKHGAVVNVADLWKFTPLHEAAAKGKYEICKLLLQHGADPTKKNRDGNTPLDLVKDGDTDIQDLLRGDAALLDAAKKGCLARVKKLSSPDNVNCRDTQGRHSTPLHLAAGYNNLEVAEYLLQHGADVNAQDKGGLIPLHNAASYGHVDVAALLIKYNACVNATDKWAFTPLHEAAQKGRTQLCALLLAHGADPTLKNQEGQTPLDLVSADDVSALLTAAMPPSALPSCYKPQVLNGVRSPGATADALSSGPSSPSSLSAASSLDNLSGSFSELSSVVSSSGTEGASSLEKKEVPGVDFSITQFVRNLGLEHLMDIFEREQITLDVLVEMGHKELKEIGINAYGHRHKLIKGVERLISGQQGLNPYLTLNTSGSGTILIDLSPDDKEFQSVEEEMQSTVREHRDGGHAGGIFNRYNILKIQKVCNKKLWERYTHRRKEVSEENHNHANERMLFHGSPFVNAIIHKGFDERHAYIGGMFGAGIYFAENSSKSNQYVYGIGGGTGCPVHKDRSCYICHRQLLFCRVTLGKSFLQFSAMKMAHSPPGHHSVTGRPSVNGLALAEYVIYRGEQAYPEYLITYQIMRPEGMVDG
The experiment can be described thus: Inhibition of TNKS2 (unknown origin).

Experiment [6] has as its target T2, Poly [ADP-ribose] polymerase tankyrase-1 (Homo sapiens, UniProt O95271).
T2 sequence (O95271 whole entry): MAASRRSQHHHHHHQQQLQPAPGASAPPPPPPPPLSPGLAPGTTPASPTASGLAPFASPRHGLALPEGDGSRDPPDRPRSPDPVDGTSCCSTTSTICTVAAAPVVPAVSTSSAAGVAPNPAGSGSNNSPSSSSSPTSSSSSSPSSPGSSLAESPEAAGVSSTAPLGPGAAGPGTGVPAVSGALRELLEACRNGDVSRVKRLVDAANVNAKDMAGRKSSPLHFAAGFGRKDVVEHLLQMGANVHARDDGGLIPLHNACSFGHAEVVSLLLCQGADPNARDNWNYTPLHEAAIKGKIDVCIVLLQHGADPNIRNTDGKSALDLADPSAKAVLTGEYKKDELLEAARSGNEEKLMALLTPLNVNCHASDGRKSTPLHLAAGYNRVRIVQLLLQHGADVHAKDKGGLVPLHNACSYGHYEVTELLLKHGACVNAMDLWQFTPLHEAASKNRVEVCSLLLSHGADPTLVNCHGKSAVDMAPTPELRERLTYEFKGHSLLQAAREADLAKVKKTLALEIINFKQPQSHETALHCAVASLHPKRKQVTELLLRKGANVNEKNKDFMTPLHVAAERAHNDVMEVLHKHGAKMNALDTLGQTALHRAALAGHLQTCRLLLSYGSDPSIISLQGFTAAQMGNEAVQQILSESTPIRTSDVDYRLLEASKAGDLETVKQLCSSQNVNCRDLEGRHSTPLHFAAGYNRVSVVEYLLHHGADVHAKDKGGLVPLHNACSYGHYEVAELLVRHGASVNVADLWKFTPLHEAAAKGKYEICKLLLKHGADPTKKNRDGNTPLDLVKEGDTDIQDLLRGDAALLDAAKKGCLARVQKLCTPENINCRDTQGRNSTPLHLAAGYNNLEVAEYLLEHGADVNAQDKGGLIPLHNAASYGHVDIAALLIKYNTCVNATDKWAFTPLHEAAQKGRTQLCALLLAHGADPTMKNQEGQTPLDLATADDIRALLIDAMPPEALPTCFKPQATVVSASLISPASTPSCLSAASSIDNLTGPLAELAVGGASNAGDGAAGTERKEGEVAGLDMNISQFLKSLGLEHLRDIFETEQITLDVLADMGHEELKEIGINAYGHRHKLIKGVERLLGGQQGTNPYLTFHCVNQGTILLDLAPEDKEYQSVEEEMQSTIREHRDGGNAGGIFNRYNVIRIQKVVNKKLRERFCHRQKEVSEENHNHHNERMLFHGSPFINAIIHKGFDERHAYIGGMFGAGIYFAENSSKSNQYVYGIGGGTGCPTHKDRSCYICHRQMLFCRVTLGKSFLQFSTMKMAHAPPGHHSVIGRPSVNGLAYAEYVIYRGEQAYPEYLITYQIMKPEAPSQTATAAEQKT
The experiment can be described thus: Inhibition of TNKS1 (unknown origin).

The subject of experiment [7] is HCT-116. The experiment can be described thus: Cytotoxicity in human HCT-116 cells expressing wild type APC assessed as reduction in cell viability incubated for 96 hrs by Cell Titer-Glo assay. Format: functional, cell-based. The following applies: HCT-116, 96 h.
For experiment [8], the system named is DLD-1. The experiment in a line: Cytotoxicity in human DLD-1 cells expressing APC mutant assessed as reduction in cell viability incubated for 96 hrs by Cell Titer-Glo assay. In kind it is functional, cell-based. The settings on record: DLD-1, 96 h. (In general: ATP-based viability assays read luminescence as a measure of living cells.)
Experiment [9] relates to SW480. The experiment in a line: Anticancer activity against human SW480 cells assessed as reduction in cell viability incubated for 24 hrs by MTT assay. In kind it is functional, cell-based. The settings on record: SW480, 24 h.
Experiment [10] relates to HCT-116. The experiment in a line: Anticancer activity against human HCT-116 cells assessed as reduction in cell viability incubated for 24 hrs by MTT assay. In kind it is functional, cell-based. The settings on record: HCT-116, 24 h.
For experiment [11], the system named is SW480. The experiment can be described thus: Antiproliferative activity against human SW480 cells assessed as inhibition of cell growth incubated for 48 hrs by MTS assay. Format: functional, cell-based. The following applies: SW480, 48 h.
The test system of experiment [12] is HCT-116. The experiment in a line: Anticancer activity against human HCT-116 cells assessed as decrease in cell growth incubated for 72 hrs by tryphan blue staining based cell counter analysis. Format: functional. The following applies: HCT-116, 72 h.
In experiment [13] the test system is SW480. The experiment in a line: Anticancer activity against human SW480 cells assessed as decrease in cell growth incubated for 72 hrs by tryphan blue staining based cell counter analysis. In kind it is functional. The following applies: SW480, 72 h.
The subject of experiment [14] is SW480. The experiment in a line: Antiproliferative activity against human SW480 cells assessed as reduction in cell viability incubated for 72 hrs by MTT assay. In kind it is functional, cell-based. The following applies: SW480, 72 h.
Experiment [15] deals with DLD-1. The experiment can be described thus: Anticancer activity against human DLD-1 cells assessed as reduction in cell viability. Format: functional, cell-based.
For another experiment, the system named is LoVo. The experiment can be described thus: Antiproliferative activity against human LoVo cells assessed as decrease in cell viability by MTT assay. Format: functional, cell-based.

In the case of `O=c1c(-c2ccc(O)cc2)coc2cc(O)cc(O)c12` [GENISTEIN], in the experiment with DLD-1 [1], the IC50 is 50 µM. For `CC(=O)O[C@@H]1C(=O)c2c(O)cc(O)cc2O[C@H]1c1ccccc1`, in the experiment on SW480 [2], the IC50 stood at 45.6 µg/mL (≈ 145 µM).

On to `COc1cccc(C2=NN(c3ccc(C(=O)Nc4cc(C(F)(F)F)cc(C(F)(F)F)c4)cc3)C(c3ccc4c(ccn4C)c3)C2)c1` (configuration not stated), for which the IC50 turned out to be 1.02 µM in experiment [3] and 1.37 µM with HCT-116 [4]. As for `COc1ccc(C2(CNC(=O)c3ccc(NC(=O)c4ccco4)cc3)CCOCC2)cc1`, the IC50 was 0.85 µM in experiment [5] and 1.9 µM in experiment [6]. `CC[C@H](C)C(=O)O[C@H]1CCC=C2C=C[C@H](C)[C@H](CC[C@@H]3C[C@@H](O)CC(=O)O3)[C@H]21` [MEVASTATIN]: the IC50 in the experiment on HCT-116 [7] stood at 18.6 µM; in the experiment with DLD-1 [8], 3.2 µM.

Take `CC1=C(CO)C(=O)O[C@@H]([C@@H](C)[C@H]2CC[C@H]3[C@@H]4C[C@H]5O[C@]56[C@@H](O)C=CC(=O)[C@]6(C)[C@H]4CC[C@]23C)C1` [WITHAFERIN A]: the IC50 in the experiment with SW480 [9] was found to be 4.9 µM; in the experiment on HCT-116 [10], 3.7 µM. With `C=C1C(=O)[C@@]23[C@H](O)C[C@@H]4C(C)(C)CC[C@H](O)[C@@]4(COC(C)=O)[C@@H]2CC[C@H]1[C@H]3O`, in the experiment with SW480 [11], the IC50 was 16.8 µM. For `C=C1C(=O)[C@]23C[C@H]1CCC2[C@@]1(C)C([C@@H](O)[C@@H]3O)[C@](C)(C(=O)O)CC[C@@H]1O` (some centres not stated), the IC50 in the experiment on HCT-116 [12] amounted to 4.07 µM. On to `COc1cc(C2Oc3cc([C@H]4Oc5cc(O)cc(O)c5C(=O)[C@@H]4O)ccc3OC2CO)ccc1O` (some centres not stated) [SILIBININ], for which the IC50 with SW480 [13] and in the experiment with HCT-116 [12] was 50 µM each time. As for `C=C1C(=O)[C@]23CC[C@H]1C[C@H]2[C@@]12CCC[C@@](C)(COC1=O)[C@H]2C[C@H]3O`, the IC50 in the experiment with SW480 [14] came out at 1.7 µM.

With `NS(=O)(=O)c1ccc(NC(=S)N2CCN(C/C=C/c3ccccc3)CC2)cc1`, the IC50 in the experiment on DLD-1 [15] came to 0.018 µM. As for `Oc1ccc(/C=C/c2cc(O)cc(O)c2)cc1` [RESVERATROL], the IC50 in the experiment with LoVo stood at 55 µM.

For orientation: IC50 means the point on the concentration scale where inhibition reaches its midpoint.
